Source: patent US20140328929A1, “Method of Preventing Acute Graft-Versus-Host Disease using Oral Beclomethasone Dipropionate” (Soligenix, Inc., priority 2011, published 2014)
“Also recorded” adds a separate entry of the source.

Key:
acute GVHD = assay: Double-blind, randomized placebo-controlled phase II study of prophylactic oral BDP: efficacy and exploratory analyses; type: in vivo, human
Excerpt: Patients who had allogeneic hematopoietic cell transplantation with marrow or growth factor-mobilized blood cells from HLA-A, -B, -C, -DRB1, and HLA-DQB1-allele matched or single-allele or antigen mismatched related or unrelated donors after a myeloablative conditioning regimen (>800 cGy total body irradiation [TBI] and cyclophosphamide or high-dose busulfan and cyclophosphamide) were eligible for this study. Patients who had transplantation with cord blood cells and those who were enrolled in studies that involved depletion of T cells from the graft or administration of T cell-depleting antibodies before transplantation were excluded. Patients with body weight <35 kg were also excluded because lower-dose formulations of the study drug were not available. All participants gave informed consent as documents with the use of forms approved by institutional review committees at the Fred Hutchinson Cancer Research Center and Hackensack University Medical Center.
(§1) All participants received a standard regimen of methotrexate and tacrolimus after transplantation as prophylaxis against acute GVHD.[10] Methotrexate was given at 15 mg/m^2 on day 1 after HCT and 10 mg/m^2 on days 3, 6 and 11. […] Administration of the study drug began at the start of the conditioning regimen and continued through day 75 after transplantation. Patients who were not able to ingest the study drug because of mucositis continued their participation in the study. […] Institutional standards were used for antibacterial and antifungal prophylaxis.
The primary pre specified endpoint of the study was development of acute GVHD with severity sufficient to require systemic immunosuppressive treatment on or before day 90 after transplantation such as: a) prednisone or its equivalent at a 1 mg/kg/day, b) systemic immunosuppressive agents other than those in the GVHD prophylactic regimen in lieu of high-dose glucocorticoids, or c) substitution of one calcineurin inhibitor for the other in the GVHD prophylactic regimen in order to treat overt GVHD. The following actions were not considered as an indication of acute GVHD with severity sufficient to require systemic immunosuppressive treatment: a) administration of high-dose glucocorticoids for indications other than acute GVHD, b) substitution of one calcineurin inhibitor for another in the GVHD prophylactic regimen in order to manage toxicity, c) increase in the dose of the calcineurin inhibitor originally prescribed for GVHD prophylaxis in order to suppress overt manifestations of acute GVHD. For purposes of the primary endpoint, extracorporeal photopheresis was considered as systemic immunosuppressive treatment, but administration of psoralen and UV irradiation was not.
In the assessment of the acute GVHD index score, parenteral nutrition was employed as a surrogate for oral caloric intake less than 40% of requirements.
For purposes of sample size estimation, we assumed that 60% of the participants in the placebo arm would require systemic glucocorticoid treatment for acute GVHD. […] Based on historical results from our center, we estimated a frequency of grade IIa GVHD at approximately 25%. […] An interim analysis was conducted after 69 patients were enrolled, with a plan to end the trial if the probability of rejecting the null hypothesis had been less than 33%. This criterion was not met, and the remaining patients were accrued as originally planned.
The primary endpoint was analyzed as a binomial outcome with differences evaluated by the unadjusted x^2 test with stratification according to donor type (related vs. unrelated) and pretransplant risk category (chronic myeloid leukemia in chronic phase, refractory anemia without excess blasts or other hematologic malignancy in remission vs. more advanced malignancy). Other endpoints were evaluated by x^2 test, Student's t-test, Wilcoxon rank sum test or log-rank test as appropriate, with no adjustment to the computed significance level to account for the interim analysis. […]

[1] = Same phase II study: assessment of safety (adverse outcomes, gastrointestinal adverse events, bacteremia, mucositis); type: in vivo
Protocol: as §1
The primary endpoint was analyzed as a binomial outcome with differences evaluated by the unadjusted x^2 test with stratification according to donor type (related vs. unrelated) and pretransplant risk category (chronic myeloid leukemia in chronic phase, refractory anemia without excess blasts or other hematologic malignancy in remission vs. more advanced malignancy). Other endpoints were evaluated by x^2 test, Student's t-test, Wilcoxon rank sum test or log-rank test as appropriate, with no adjustment to the computed significance level to account for the interim analysis. Results were analyzed with data available as of Sep. 15, 2010.
These included the hazards of cytomegalovirus and invasive yeast or mold infection, cGVHD, death without recurrent malignancy, recurrent malignancy, death from any cause, and the composite of death or recurrent malignancy. […] Other gastrointestinal adverse events occurred infrequently.
GVHD, bacteremia and recurrent malignancy were the most frequent serious adverse events. Other serious adverse events occurred at frequencies <5%. […] For this reason, we evaluated the distribution of all bacteremia episodes. Because participants took the study drug until day 75 after transplantation and then stopped, we included all bacteremia episodes that occurred before day 103. […] We observed a single episode of Enterococcus bacteremia among the 46 participants in the placebo arm, on day 15 after transplantation.
Time-to-first event analyses were used to evaluate the risks of bacteremia in the BDP arm compared to the placebo arm. Follow-up was censored at 103 days after HCT, 28 days after the end of study drug administration. The hazard ratios were 1.38 (95% CI 0.8-2.5) for any bacteremia, 1.32 (95% CI 0.7-2.5) for gram-positive bacteremia, and 5.24 (95% CI 0.7-41) for Enterococcus bacteremia.
For this reason, we evaluated the severity of mucositis in the two arms for the 118 patients who had evaluations by an oral medicine specialist on at least one occasion after transplantation at the FHCRC.

adrenal function = assay: Cosyntropin stimulation test at approximately day 75 after transplantation; type: in vivo, human; conditions: 26 of the 30 participants tested in the BDP arm; no systemic glucocorticoid treatment; about day 75
gastrointestinal GVHD = conditions: oral BDP plus 10 day course of prednisone (1 mg/kg/day) with 7 day taper; grade II gastrointestinal GVHD; cited from earlier work
[2] = cited from earlier work
[3] = BDP >90% adherent group, N = 50
[4] = BDP patients with ≧90% adherence

SMILES: CCC(=O)OCC(=O)[C@@]1(OC(=O)CC)[C@@H](C)C[C@H]2[C@@H]3CCC4=CC(=O)C=C[C@]4(C)[C@@]3(Cl)[C@@H](O)C[C@@]21C [BDP, beclomethasone 17,21-dipropionate]
- Systemic treatment for GVHD among BDP patients with ≧90% adherence (acute GVHD; 50 BDP patients, 27 treated): 54%
- Cumulative Prednisone Dose through Day 75 Post HCT (acute GVHD; BDP 50-90% adherent, number 34): 2105 mg
- Mean of the Average Dose (prednisone) through Day 75 Post HCT (acute GVHD; BDP 50-90% adherent, number 34): 28.7 mg
- Cumulative Prednisone Dose through Day 75 Post HCT (acute GVHD; BDP <50% adherent, number 8): 2048 mg
- Mean of the Average Dose (prednisone) through Day 75 Post HCT (acute GVHD; BDP <50% adherent, number 8): 29.2 mg
- Overall Mortality, N (%) (acute GVHD; [3]): 7 (14) N (%)
- Relapse, N (%) (acute GVHD; [3]): 9 (18) N (%)
- Cumulative Prednisone Dose through Day 75 Post HCT (acute GVHD; BDP >90% adherent, number 50): 1145 mg
- Mean of the Average Dose (prednisone) through Day 75 Post HCT (acute GVHD; BDP >90% adherent, number 50): 15.4 mg
- BDP >90% adherent group requiring systemic treatment for acute GVHD before day 90, N (%) (acute GVHD; BDP N = 50, >90% adherent): 27 (54) N (%)
- Systemic treatment for acute GVHD before day 90, N (%) PRIMARY ENDPOINT (acute GVHD; BDP N = 92, Table 5): 62 (67) N (%)
- Gastrointestinal GVHD proven by biopsy, events (acute GVHD; BDP arm): 44
- Secondary systemic treatment for GVHD, events (acute GVHD; BDP arm): 8
- Topical treatment for acute GVHD, events (acute GVHD; BDP arm): 58
- Average weekly gut morbidity score (SD) (acute GVHD; BDP arm N = 92): 0.63 (0.36)
- Average weekly gut morbidity score after day 21 (SD) (acute GVHD; BDP arm N = 92): 0.47 (0.48)
- Average weekly liver morbidity score (SD) (acute GVHD; BDP arm N = 92): 0.11 (0.31)
- Average weekly overall morbidity score, mean (SD) (acute GVHD; BDP arm N = 92): 1.22 (0.53)
- Average weekly skin morbidity score (SD) (acute GVHD; BDP arm N = 92): 0.30 (0.42)
- Peak GVHD grade 0-1, N (%) (acute GVHD; BDP arm N = 92): 31 (34) N (%)
- Peak GVHD grade IIa, N (%) (acute GVHD; BDP arm N = 92): 41 (45) N (%)
- Peak GVHD grade IIb-IV, N (%) (acute GVHD; BDP arm N = 92): 20 (22) N (%)
- Peak overall morbidity score, mean (SD) (acute GVHD; BDP arm N = 92): 2.54 (0.62)
- Systemic treatment for acute GVHD before day 90, N (%) (acute GVHD; BDP arm N = 92, Table 2): 60 (65) N (%)
- Cumulative mg/kg prednisone-equivalent systemic glucocorticoid dose to day 75, mean (SD) (acute GVHD; BDP arm N = 92, for GVHD, not including steroid treatment for other indications): 33.1 (23.3) mg/kg
- Systemic treatment for acute GVHD, HR (acute GVHD; BDP arm compared to placebo arm, 95% CI 0.6-1.4): 0.92
- Participants given systemic glucocorticoid treatment for GVHD (acute GVHD; BDP arm, 60 participants): 65%
- Grades IIb-III GVHD (acute GVHD; BDP arm, peak OMI scores >20, seven of 36 participants): 19%
- Grades IIb-III GVHD (acute GVHD; BDP arm, peak OMI scores ≦20, nine of 43 participants): 21%
- Cumulative incidence of grades III-IV GVHD (acute GVHD; BDP arm, 95% CI 1%-12%): 7%
- Systemic treatment for acute GVHD, events (acute GVHD; BDP arm, withdrawal or recurrent malignancy as competing event): 61
- Incidence of relapse (acute GVHD; [4]): 18%
- Overall mortality (acute GVHD; [4]): 14%
- Secondary systemic treatment for GVHD, HR (acute GVHD; BDP vs placebo, 95% CI 0.2-1.9): 0.65
- Topical treatment for acute GVHD, HR (acute GVHD; BDP vs placebo, 95% CI 0.6-1.4): 0.89
- Gastrointestinal GVHD proven by biopsy, HR (acute GVHD; BDP vs placebo, 95% CI 0.7-2.2): 1.26
- Cumulative incidence of grades IIb-IV GVHD (acute GVHD; day 100 after transplantation, BDP arm, 95% CI 13%-30%): 22%
- Cumulative incidence of grades IIa-IV GVHD (acute GVHD; day 100 after transplantation, BDP arm, 95% CI 57%-76%): 66%
- Death from any cause, events ([1]; BDP arm): 22
- Death or recurrent malignancy, events ([1]; BDP arm): 29
- Death without recurrent malignancy, events ([1]; BDP arm): 10
- Death without recurrent malignancy, HR ([1]; BDP vs placebo, 95% CI 0.4-5.8): 1.60
- Death or recurrent malignancy, HR ([1]; BDP vs placebo, 95% CI 0.5-1.7): 0.93
- Death from any cause, HR ([1]; BDP vs placebo, 95% CI 0.5-2.0): 0.95
- Participants with Enterococcus bacteremia episodes among those who received total body irradiation ([1]; BDP, of the 61 participants (both arms) with total body irradiation): 9
- Participants with Enterococcus bacteremia episodes among those who received busulfan and cyclophosphamide ([1]; BDP, of the 77 participants (both arms)): 1
- CMV viremia or disease, HR ([1]; human, in vivo): 0.93
- CMV viremia or disease, events ([1]; human, in vivo): 23
- Chronic GVHD requiring systemic treatment, HR ([1]; human, in vivo): 1.05
- Chronic GVHD requiring systemic treatment, events ([1]; human, in vivo): 31
- Colitis, N (%) ([1]; human, in vivo): 0 (0) N (%)
- Enteritis, N (%) ([1]; human, in vivo): 0 (0) N (%)
- Episodes of Enterococcus bacteremia ([1]; human, in vivo): 12 episodes
- Episodes of Enterococcus bacteremia after day 57 ([1]; human, in vivo): 3 episodes
- Episodes of Enterococcus bacteremia before day 17 after transplantation ([1]; human, in vivo): 9 episodes
- Episodes of gram-negative bacteremia ([1]; human, in vivo): 15 episodes
- Esophagitis, N (%) ([1]; human, in vivo): 8 (9) N (%)
- GI hemorrhage, N (%) ([1]; human, in vivo): 2 (2) N (%)
- GI infection (any), N (%) ([1]; human, in vivo): 22 (24) N (%)
- GI infection: C. difficile, N (%) ([1]; human, in vivo): 16 (17) N (%)
- GI infection: CMV enteritis, N (%) ([1]; human, in vivo): 2 (2) N (%)
- GI infection: Other viral infection, N (%) ([1]; human, in vivo): 2 (2) N (%)
- GI infection: Other, N (%) ([1]; human, in vivo): 3 (3) N (%)
- GI infection: Yeast or mold, N (%) ([1]; human, in vivo): 0 (0) N (%)
- GI ulceration or erosion, N (%) ([1]; human, in vivo): 5 (5) N (%)
- Gastritis, N (%) ([1]; human, in vivo): 2 (2) N (%)
- Gastrointestinal ulceration or erosion diagnosed by endoscopy ([1]; human, in vivo): 5 participants
- Ileus, N (%) ([1]; human, in vivo): 1 (0) N (%)
- Invasive yeast or mold infection, HR ([1]; human, in vivo): 0.50
- Invasive yeast or mold infection, events ([1]; human, in vivo): 1
- Number of serious adverse events related to bacteremia ([1]; human, in vivo): 14
- Number of serious adverse events related to mucositis ([1]; human, in vivo): 5
- Participants diagnosed with gastrointestinal infection ([1]; human, in vivo): 24%
- Recurrent malignancy, HR ([1]; human, in vivo): 0.77
- Recurrent malignancy, events ([1]; human, in vivo): 19
- Typhlitis, N (%) ([1]; human, in vivo): 1 (1) N (%)
- Oral infection, N (%) ([1]; human, in vivo, po): 3 (3) N (%)
- Participants with Enterococcus bacteremia ([1]; of the 92 participants in the BDP arm, before day 103): 10 participants
- Abnormal adrenal function (adrenal function): 87%
- Efficacy for treatment of gastrointestinal GVHD in two previous randomized trials (gastrointestinal GVHD): more effective than prednisone alone; also recorded: effective
- Protein binding [2]: protein-bound
